Test results: the supplement of paper PMC10733146

How the values were obtained:
Assay in all cases: viability relative to DMSO control (fraction); higher = less drug effect (more viable cells)
Conditions in all cases: 48 h
CPI-169 = compound: CCS(=O)(=O)N1CCC([C@@H](C)n2c(C)c(C(=O)NCc3c(OC)cc(C)[nH]c3=O)c3ccccc32)CC1 [CPI-169]
Procedure, shortened: (§1)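 Viability was measured as CellTiter-Glo luminescence relative to the median of 16 inner DMSO wells. Primary mononuclear tumour cells, fresh or cryopreserved, were Ficoll-isolated from blood or bone marrow or taken from processed lymph node. They were seeded at 4 × 10^4 cells per well into 384-well plates holding pre-plated compounds at five concentrations, one well each, and kept in RPMI-1640 with penicillin/streptomycin, L-glutamine and human serum at 37 °C and 5% CO2 for 48 h.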

Bendamustine = compound: Cn1c(CCCC(=O)O)nc2cc(N(CCCl)CCCl)ccc21 [Bendamustine]
Procedure, shortened: as §1

SGC 0946 = compound: CC(C)N(CCCNC(=O)Nc1ccc(C(C)(C)C)cc1)C[C@H]1O[C@@H](n2cc(Br)c3c(N)ncnc32)[C@H](O)[C@@H]1O [SGC 0946]
Procedure, shortened: as §1

Palbociclib = compound: CC(=O)c1c(C)c2cnc(Nc3ccc(N4CCNCC4)cn3)nc2n(C2CCCC2)c1=O [Palbociclib]
Procedure, shortened: as §1

Tofacitinib = compound: C[C@@H]1CCN(C(=O)CC#N)C[C@@H]1N(C)c1ncnc2[nH]ccc12 [Tofacitinib]
Procedure, shortened: as §1

Entospletinib = compound: c1cn2cc(-c3ccc4cn[nH]c4c3)nc(Nc3ccc(N4CCOCC4)cc3)c2n1 [Entospletinib]
Procedure, shortened: as §1

Selinexor = compound: O=C(/C=C\n1cnc(-c2cc(C(F)(F)F)cc(C(F)(F)F)c2)n1)NNc1cnccn1 [Selinexor]
Procedure, shortened: as §1

Etoposide = compound: COc1cc([C@@H]2c3cc4c(cc3[C@@H](O[C@@H]3O[C@@H]5CO[C@@H](C)O[C@H]5[C@H](O)[C@H]3O)[C@H]3COC(=O)[C@H]23)OCO4)cc(OC)c1O [Etoposide]
Procedure, shortened: as §1

Roscovitine = compound: CC[C@H](CO)Nc1nc(NCc2ccccc2)c2ncn(C(C)C)c2n1 [Roscovitine]
Procedure, shortened: as §1

Everolimus = compound: CO[C@H]1C[C@@H]2CC[C@@H](C)[C@@](O)(O2)C(=O)C(=O)N2CCCC[C@H]2C(=O)O[C@H]([C@H](C)C[C@@H]2CC[C@@H](OCCO)[C@H](OC)C2)CC(=O)[C@H](C)/C=C(\C)[C@@H](O)[C@@H](OC)C(=O)[C@H](C)C[C@H](C)/C=C/C=C/C=C/1C [Everolimus]
Procedure, shortened: as §1

Barasertib = compound: CCN(CCCOc1ccc2c(Nc3cc(CC(=O)Nc4cccc(F)c4)[nH]n3)ncnc2c1)CCOP(=O)(O)O [Barasertib]
Procedure, shortened: as §1

EPZ-6438 = compound: CCN(c1cc(-c2ccc(CN3CCOCC3)cc2)cc(C(=O)NCc2c(C)cc(C)[nH]c2=O)c1C)C1CCOCC1 [EPZ-6438]
Procedure, shortened: as §1

Midostaurin hydrate = compound: CO[C@@H]1[C@H](N(C)C(=O)c2ccccc2)C[C@H]2O[C@]1(C)n1c3ccccc3c3c4c(c5c6ccccc6n2c5c31)C(=O)NC4 [Midostaurin hydrate]
Procedure, shortened: as §1

primary B-PLL patient cells (S016)
viability (CPI-169; 0.024 µM): 0.946 | viability (CPI-169; 0.12 µM): 1.02 | viability (CPI-169; 0.6 µM): 1.04 | viability (CPI-169; 3 µM): 1.01 | viability (CPI-169; 15 µM): 1.2 | viability (Bendamustine; 0.032 µM): 0.965 | viability (Bendamustine; 0.16 µM): 0.953 | viability (Bendamustine; 0.8 µM): 1.04 | viability (Bendamustine; 4 µM): 0.864 | viability (Bendamustine; 20 µM): 0.496 | viability (SGC 0946; 0.024 µM): 1 | viability (SGC 0946; 0.12 µM): 1.04 | viability (SGC 0946; 0.6 µM): 0.946 | viability (SGC 0946; 3 µM): 0.922 | viability (SGC 0946; 15 µM): 0.435 | viability (Palbociclib; 0.024 µM): 0.982 | viability (Palbociclib; 0.12 µM): 0.886 | viability (Palbociclib; 0.6 µM): 0.89 | viability (Palbociclib; 3 µM): 0.625 | viability (Palbociclib; 15 µM): 0.457 | viability (Tofacitinib; 0.024 µM): 0.953 | viability (Tofacitinib; 0.12 µM): 0.991 | viability (Tofacitinib; 0.6 µM): 0.994 | viability (Tofacitinib; 3 µM): 1.06 | viability (Tofacitinib; 15 µM): 1.03 | viability (Entospletinib; 0.024 µM): 0.927 | viability (Entospletinib; 0.12 µM): 0.919 | viability (Entospletinib; 0.6 µM): 0.934 | viability (Entospletinib; 3 µM): 0.947 | viability (Entospletinib; 15 µM): 0.864 | viability (Selinexor; 0.008 µM): 0.949 | viability (Selinexor; 0.04 µM): 0.929 | viability (Selinexor; 0.2 µM): 0.822 | viability (Selinexor; 1 µM): 0.847 | viability (Selinexor; 5 µM): 0.67 | viability (Etoposide; 0.032 µM): 1.14 | viability (Etoposide; 0.16 µM): 0.886 | viability (Etoposide; 0.8 µM): 0.762 | viability (Etoposide; 4 µM): 0.362 | viability (Etoposide; 20 µM): 0.0933 | viability (Roscovitine; 0.032 µM): 0.927 | viability (Roscovitine; 0.16 µM): 1.05 | viability (Roscovitine; 0.8 µM): 1.02 | viability (Roscovitine; 4 µM): 1.23 | viability (Roscovitine; 20 µM): 1.09 | viability (Everolimus; 0.0032 µM): 0.735 | viability (Everolimus; 0.016 µM): 0.647 | viability (Everolimus; 0.08 µM): 0.665 | viability (Everolimus; 0.4 µM): 0.659 | viability (Everolimus; 2 µM): 0.697 | viability (Barasertib; 0.0008 µM): 0.883 | viability (Barasertib; 0.004 µM): 0.984 | viability (Barasertib; 0.02 µM): 0.962 | viability (Barasertib; 0.1 µM): 1.01 | viability (Barasertib; 0.5 µM): 1.03 | viability (EPZ-6438; 0.024 µM): 1.21 | viability (EPZ-6438; 0.12 µM): 1.14 | viability (EPZ-6438; 0.6 µM): 1.1 | viability (EPZ-6438; 3 µM): 1.01 | viability (EPZ-6438; 15 µM): 1.06 | viability (Midostaurin hydrate; 0.024 µM): 0.999 | viability (Midostaurin hydrate; 0.12 µM): 0.949 | viability (Midostaurin hydrate; 0.6 µM): 1.05 | viability (Midostaurin hydrate; 3 µM): 0.925 | viability (Midostaurin hydrate; 15 µM): 0.616

primary AML patient cells (S072)
viability (CPI-169; 0.024 µM): 0.941 | viability (CPI-169; 0.12 µM): 0.897 | viability (CPI-169; 0.6 µM): 0.953 | viability (CPI-169; 3 µM): 0.89 | viability (CPI-169; 15 µM): 0.88 | viability (Bendamustine; 0.032 µM): 0.999 | viability (Bendamustine; 0.16 µM): 1.03 | viability (Bendamustine; 0.8 µM): 1.02 | viability (Bendamustine; 4 µM): 1.01 | viability (Bendamustine; 20 µM): 0.839 | viability (SGC 0946; 0.024 µM): 0.981 | viability (SGC 0946; 0.12 µM): 0.932 | viability (SGC 0946; 0.6 µM): 0.893 | viability (SGC 0946; 3 µM): 0.847 | viability (SGC 0946; 15 µM): 0.706 | viability (Palbociclib; 0.024 µM): 1.01 | viability (Palbociclib; 0.12 µM): 0.922 | viability (Palbociclib; 0.6 µM): 0.957 | viability (Palbociclib; 3 µM): 0.747 | viability (Palbociclib; 15 µM): 0.294 | viability (Tofacitinib; 0.024 µM): 0.903 | viability (Tofacitinib; 0.12 µM): 0.859 | viability (Tofacitinib; 0.6 µM): 0.84 | viability (Tofacitinib; 3 µM): 0.776 | viability (Tofacitinib; 15 µM): 0.827 | viability (Entospletinib; 0.024 µM): 1.02 | viability (Entospletinib; 0.12 µM): 0.935 | viability (Entospletinib; 0.6 µM): 0.986 | viability (Entospletinib; 3 µM): 0.995 | viability (Entospletinib; 15 µM): 0.917 | viability (Selinexor; 0.008 µM): 0.9 | viability (Selinexor; 0.04 µM): 0.844 | viability (Selinexor; 0.2 µM): 0.74 | viability (Selinexor; 1 µM): 0.571 | viability (Selinexor; 5 µM): 0.477 | viability (Etoposide; 0.032 µM): 1.04 | viability (Etoposide; 0.16 µM): 0.99 | viability (Etoposide; 0.8 µM): 0.912 | viability (Etoposide; 4 µM): 0.938 | viability (Etoposide; 20 µM): 0.736 | viability (Roscovitine; 0.032 µM): 0.93 | viability (Roscovitine; 0.16 µM): 0.85 | viability (Roscovitine; 0.8 µM): 0.874 | viability (Roscovitine; 4 µM): 0.82 | viability (Roscovitine; 20 µM): 0.483 | viability (Everolimus; 0.0032 µM): 0.785 | viability (Everolimus; 0.016 µM): 0.744 | viability (Everolimus; 0.08 µM): 0.789 | viability (Everolimus; 0.4 µM): 0.758 | viability (Everolimus; 2 µM): 0.775 | viability (Barasertib; 0.0008 µM): 1.05 | viability (Barasertib; 0.004 µM): 0.848 | viability (Barasertib; 0.02 µM): 0.851 | viability (Barasertib; 0.1 µM): 0.857 | viability (Barasertib; 0.5 µM): 0.944 | viability (EPZ-6438; 0.024 µM): 1.04 | viability (EPZ-6438; 0.12 µM): 1.29 | viability (EPZ-6438; 0.6 µM): 1.06 | viability (EPZ-6438; 3 µM): 1.16 | viability (EPZ-6438; 15 µM): 0.938 | viability (Midostaurin hydrate; 0.024 µM): 1.3 | viability (Midostaurin hydrate; 0.12 µM): 1.01 | viability (Midostaurin hydrate; 0.6 µM): 0.993 | viability (Midostaurin hydrate; 3 µM): 0.87 | viability (Midostaurin hydrate; 15 µM): 0.584
